Assay results taken from publication PMC12311259, “Antifibrotic effects of specific targeting of the 5‐hydroxytryptamine 2B receptor (5‐HT2BR) in murine models and ex vivo models of scleroderma skin” (Arthritis & Rheumatology (Hoboken, N.j.), 2025).

Tests used:
[1] = test system: Bleomycin-induced pulmonary fibrosis; assay: Bleomycin-induced pulmonary fibrosis in mice; assay type: in vivo, mouse
Method: Pulmonary fibrosis was induced by a single intratracheal instillation of bleomycin (25 μg in 50 μL of 0.9% NaCl).[12] Treatment was initiated at two weeks after the first injection of bleomycin. AM1476 was administered orally at 1, 3, or 10 mg/kg once daily. Solvent (double‐distilled water) was used as a control, and nintedanib at 30 mg/kg orally every day (qd) was included as a comparator. The outcome was analyzed at two and four weeks after the first injection of bleomycin. Mice injected with 0.9% NaCl, the vehicle of bleomycin, served as nonfibrotic controls. Eight mice per group were analyzed.
(§1) Skin samples were fixed in 4% formalin for six hours and embedded in paraffin. Five‐micrometer sections were cut and stained with hematoxylin and eosin (H&E). The dermal thickness was quantified on H&E‐stained sections using images captured with a light microscope (Nikon eclipse 80i) at 100‐fold magnification by manually measuring the distance between the epidermal‐dermal junction and the dermal‐subcutaneous fat junction at four sites per mouse.[15], [16] For lung samples, the whole left lung was fixed in 4% formalin for six hours and embedded in paraffin. Five‐micrometer sections were cut and stained with trichrome and sirius red. Histologic readouts were evaluation of the fibrotic area as the percentage of the total lung area in sirius red–stained sections (two sections per mouse) and quantification of pulmonary changes using the Ashcroft score (four sections per mouse).[17], [18]
The amount of collagen protein in skin and lung samples was determined by hydroxyproline assay.[19], [20] After digestion in 6 M HCl for three hours at 120°C, the pH of the samples was adjusted to a pH range of 6–7 with 6 M NaOH. Afterward, 0.06 M chloramine T was added to each sample and incubated for 20 minutes at room temperature. Next, 3.15 M perchloric acid and 20% p‐dimethylaminobenzaldehyde were added, and samples were incubated for an additional 20 minutes at 60°C. The absorbance was determined at 557 nm with a Spectra MAX 190 microplate spectrophotometer. Absolute values were determined using a standard curved generated with type I collagen (Sigma‐Aldrich).

Adrenergic α1B (hu) = target: T1, Adrenergic α1B (hu) (Homo sapiens, UniProt P35368); assay: Functionality assay, IP1, Eurofins Panlabs 302060; assay type: cell-based
T1 construct: Eurofins Panlabs 302060
Source text: (§2) Effects were considered significant if AM1476's mean value was three or more SDs above the vehicle control mean in the agonist assay or three or more SDs below the positive control agonist (5‐nM α‐methylserotonin) mean in the antagonist assay. AM1476 was screened for selectivity against approximately 200 targets using a Eurofins Panlabs Spectrum screen panel including enzymatic and receptor binding assays.

[2] = target: T2, Serotonin (5-Hydroxytryptamine) 5-HT3 (hu) (Homo sapiens, UniProt P46098); assay: Receptor binding, Eurofins Panlabs 271910
T2 construct: Eurofins Panlabs 271910
Source text: as §2

Uptake, Dopamine (hu) = target: T3, Uptake, Dopamine (hu) (Homo sapiens, UniProt Q01959); assay: Functionality assay, Uptake, Eurofins Panlabs 316010; assay type: cell-based
T3 construct: Eurofins Panlabs 316010
Source text: as §2

[3] = test system: cGvHD-induced skin fibrosis; assay: Sclerodermatous cGvHD mouse model (B10.D2 to BALB/c), skin fibrosis incl. RNASeq and immunofluorescence of skin; assay type: in vivo
Method: (§3) AM1476 was dissolved in sterile distilled water for the ex vivo and in vivo experiments. A concentration of 30 μM was applied for the ex vivo experiment. For the in vivo experiments, 1, 3, or 10 mg/kg was administered orally once or twice daily.
(§4) The B10.D2→BALB/c (H‐2d) minor histocompatibility antigen–mismatched model was performed as described.[9], [10] Briefly, female BALB/c (H‐2d) mice were purchased from Janvier. Male B10.D2 (H‐2d) mice were initially purchased from Jackson Laboratory. All mice were maintained in specific pathogen‐free conditions with sterile pellet food and water and a normal day–night cycle. For isolation of unfractionated bone marrow cells, tibial and femoral bones were prepared under sterile conditions. Phosphate buffered saline (PBS) was used to flush bone marrow cells from bone marrow cavities. Subsequently, bone marrow cells were filtered through 70‐μm nylon meshes (BD Biosciences), followed by erythrocyte hemolysis. The remaining bone marrow cells were kept on ice until transplantation. Transplantation of bone marrow cells and splenocytes was performed as follows: Recipient mice (BALB/c [H‐2d]) eight weeks of age received total body irradiation with 750 cGy. Six hours after irradiation, all BALB/c (H‐2d) recipients received bone marrow from either BALB/c (H‐2d) in a syngeneic transplantation manner or B10.D2 (H‐2d) in an allogeneic transplantation manner. For transplantation, 5 × 10[6] splenocytes and 2 × 10[6] bone marrow cells from donor mice were resuspended in 0.2 mL of PBS and injected via tail veins.[9], [10] To reflect the clinical situation with treatment initiation upon clinical signs of chronic graft‐versus‐host disease (cGvHD), treatment was started 21 days after bone marrow transplantation (BMT) and thus after the first clinically detectable manifestations of cGvHD in allogeneically transplanted mice. The outcome of treatment was analyzed seven weeks after transplantation. Eight mice per group were analyzed.
Mice were monitored clinically on a daily basis for behavior, activity, texture of the fur, weight, and consistency of the stool.[13] After the mice were killed, a gross macroscopic evaluation of the lungs and the skin was performed.
Recipient mice were clinically monitored on a daily basis from the day of transplantation to the indicated days after transplantation to determine the incidence and severity of cutaneous cGvHD as well as mobility, diarrhea, and weight loss.[10], [14] The following scoring system for cutaneous cGvHD was used: healthy appearance = 0; skin lesions with alopecia <1 cm[2] in area = 1; skin lesions with alopecia 1 to 2 cm[2] in area = 2; and skin lesions with alopecia >2 cm[2] in area = 3.
as §1
The amount of collagen protein in skin and lung samples was determined by hydroxyproline assay.[19], [20] After digestion in 6 M HCl for three hours at 120°C, the pH of the samples was adjusted to a pH range of 6–7 with 6 M NaOH. Afterward, 0.06 M chloramine T was added to each sample and incubated for 20 minutes at room temperature.

[4] = test system: cGvHD-induced pulmonary fibrosis; assay: Sclerodermatous cGvHD mouse model, pulmonary fibrosis; assay type: in vivo
Method: as §3
as §4, with “To reflect the clinical situation with treatment initiation upon clinical signs of chronic graft‐versus‐host disease (cGvHD), treatment was started 21 days after bone marrow transplantation (BMT) and thus after the first clinically detectable manifestations of cGvHD in allogeneically transplanted mice.” left out
as §1, with “Five‐micrometer sections were cut and stained with hematoxylin and eosin (H&E).” left out, “For lung samples, the whole left lung was fixed in 4% formalin for six hours and embedded in paraffin. Five‐micrometer sections were cut and stained with trichrome and sirius red.” left out
The amount of collagen protein in skin and lung samples was determined by hydroxyproline assay.[19], [20] […] The absorbance was determined at 557 nm with a Spectra MAX 190 microplate spectrophotometer. Absolute values were determined using a standard curved generated with type I collagen (Sigma‐Aldrich).

[5] = target: T4, Serotonin (5-Hydroxytryptamine) 5-HT7 (hu) (Homo sapiens, UniProt P34969); assay: Receptor binding, Eurofins Panlabs 272320
T4 construct: Eurofins Panlabs 272320
Source text: as §2

[6] = target: Serotonin (5-Hydroxytryptamine) 5-HT4 (gp) (Cavia porcellus, UniProt O70528); assay: Receptor binding, Eurofins Panlabs 272000; design: species or system guinea pig
Source text: as §2

[7] = all doses (1, 3, 10 mg/kg orally once daily), vs vehicle-treated bleomycin-challenged mice
[8] = treatment from day 21 after BMT, vs vehicle-treated mice seven weeks after BMT
[9] = all three doses, vs vehicle-treated mice seven weeks after BMT

T4 sequence (P34969 whole entry): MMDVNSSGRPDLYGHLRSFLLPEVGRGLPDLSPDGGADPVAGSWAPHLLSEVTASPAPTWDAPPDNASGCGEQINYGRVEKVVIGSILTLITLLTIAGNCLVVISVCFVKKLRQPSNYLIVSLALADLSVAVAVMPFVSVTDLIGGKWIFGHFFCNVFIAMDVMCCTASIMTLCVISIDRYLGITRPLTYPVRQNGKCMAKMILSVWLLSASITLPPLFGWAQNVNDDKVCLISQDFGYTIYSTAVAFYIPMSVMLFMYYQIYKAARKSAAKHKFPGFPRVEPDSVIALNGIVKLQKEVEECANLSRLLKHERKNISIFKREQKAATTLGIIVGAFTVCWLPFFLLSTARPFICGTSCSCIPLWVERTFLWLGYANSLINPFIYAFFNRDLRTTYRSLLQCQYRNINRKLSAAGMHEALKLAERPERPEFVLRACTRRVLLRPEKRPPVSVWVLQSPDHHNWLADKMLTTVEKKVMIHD
T1 sequence (P35368 whole entry): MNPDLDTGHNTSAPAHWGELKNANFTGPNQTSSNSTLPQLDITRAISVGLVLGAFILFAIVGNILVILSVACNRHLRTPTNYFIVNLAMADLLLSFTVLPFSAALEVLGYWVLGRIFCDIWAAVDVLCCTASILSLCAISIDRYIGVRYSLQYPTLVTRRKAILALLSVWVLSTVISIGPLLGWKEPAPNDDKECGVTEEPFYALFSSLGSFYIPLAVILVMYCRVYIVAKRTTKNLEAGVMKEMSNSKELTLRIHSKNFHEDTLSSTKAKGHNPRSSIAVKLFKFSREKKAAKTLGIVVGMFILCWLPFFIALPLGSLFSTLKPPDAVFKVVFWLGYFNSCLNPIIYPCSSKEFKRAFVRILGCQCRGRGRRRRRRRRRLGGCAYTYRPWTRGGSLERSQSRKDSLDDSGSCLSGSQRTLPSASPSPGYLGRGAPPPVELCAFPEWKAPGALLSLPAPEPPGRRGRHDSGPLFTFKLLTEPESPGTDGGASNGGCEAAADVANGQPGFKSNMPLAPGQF
Sequence of Serotonin (5-Hydroxytryptamine) 5-HT4 (gp) (O70528 1-358 limits assumed): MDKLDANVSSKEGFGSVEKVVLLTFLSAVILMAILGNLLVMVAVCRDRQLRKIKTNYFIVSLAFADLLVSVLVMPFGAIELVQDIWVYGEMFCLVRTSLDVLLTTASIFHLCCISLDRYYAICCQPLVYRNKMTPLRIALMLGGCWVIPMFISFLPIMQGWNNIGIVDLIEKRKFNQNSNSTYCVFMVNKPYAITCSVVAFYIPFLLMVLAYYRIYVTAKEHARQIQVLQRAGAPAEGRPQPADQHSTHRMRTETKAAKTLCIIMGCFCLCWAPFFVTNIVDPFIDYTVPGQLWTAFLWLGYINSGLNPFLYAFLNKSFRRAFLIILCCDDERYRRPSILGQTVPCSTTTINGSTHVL
T2 sequence (P46098 24-478): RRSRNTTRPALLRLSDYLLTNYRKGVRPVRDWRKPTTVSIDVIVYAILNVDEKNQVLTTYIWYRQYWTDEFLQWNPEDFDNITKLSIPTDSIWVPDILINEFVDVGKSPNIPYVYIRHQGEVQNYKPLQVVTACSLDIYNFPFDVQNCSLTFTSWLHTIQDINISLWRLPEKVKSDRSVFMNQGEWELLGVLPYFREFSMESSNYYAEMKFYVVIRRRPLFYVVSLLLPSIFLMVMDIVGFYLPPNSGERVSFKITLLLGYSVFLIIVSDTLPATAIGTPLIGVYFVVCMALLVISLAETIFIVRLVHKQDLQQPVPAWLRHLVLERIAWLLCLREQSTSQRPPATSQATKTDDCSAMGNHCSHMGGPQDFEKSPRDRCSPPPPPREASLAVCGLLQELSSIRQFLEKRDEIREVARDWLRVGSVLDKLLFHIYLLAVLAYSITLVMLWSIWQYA
T3 sequence (Q01959 whole entry): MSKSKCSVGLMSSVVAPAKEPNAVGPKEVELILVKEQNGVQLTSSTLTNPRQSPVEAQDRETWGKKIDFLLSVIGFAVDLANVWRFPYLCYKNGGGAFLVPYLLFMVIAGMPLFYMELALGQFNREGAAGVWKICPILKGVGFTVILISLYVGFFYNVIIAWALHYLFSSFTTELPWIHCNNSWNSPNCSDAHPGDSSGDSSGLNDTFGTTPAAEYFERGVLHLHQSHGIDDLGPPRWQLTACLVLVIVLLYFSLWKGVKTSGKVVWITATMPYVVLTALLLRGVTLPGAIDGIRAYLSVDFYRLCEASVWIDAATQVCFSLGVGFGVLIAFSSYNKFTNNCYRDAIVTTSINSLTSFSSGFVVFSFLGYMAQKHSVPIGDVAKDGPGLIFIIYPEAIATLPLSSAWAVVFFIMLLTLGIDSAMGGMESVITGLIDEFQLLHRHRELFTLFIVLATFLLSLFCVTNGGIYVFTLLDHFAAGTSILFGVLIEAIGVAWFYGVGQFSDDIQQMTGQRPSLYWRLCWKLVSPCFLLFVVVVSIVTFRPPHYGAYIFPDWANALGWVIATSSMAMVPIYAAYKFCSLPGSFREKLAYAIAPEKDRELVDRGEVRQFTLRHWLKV

SMILES: C[C@@H]1CN(C(=N)N)N=C1c1ccc(F)cc1O [AM1476]
- antifibrotic effects relative to comparator, across the different readouts ([1]; AM1476 1, 3, 10 mg/kg orally once daily): comparable to those of nintedanib
- Ashcroft scores [1, 7]: decreases
- collagen-covered area [1, 7]: decreases
- hydroxyproline content [1, 7]: decreases
- IC50 (Adrenergic α1B (hu)): 9.53 µM
- agonistic activity, Adrenergic α1B (Adrenergic α1B (hu); at 30 µM): No significant agonistic activity at 30 µM
- % Inhibition at 10 µM, 5-HT3 (hu) [2]: 14%
- IC50 (Uptake, Dopamine (hu)): > 30 µM
- antifibrotic effects, comparison of doses ([3]; 10 mg/kg bid and 10 mg/kg qd (comparable to each other) vs 1 mg/kg bid): more pronounced than with 1 mg/kg bid
- hydroxyproline content, skin, vs mice killed after three weeks ([3]; 10 mg/kg qd): significant reduction
- number of CD45+ leukocytes in skin ([3]; all doses): none of the concentrations of AM1476 reduced
- myofibroblast counts vs mice killed three weeks after BMT ([3]; all three doses): significantly lower
- tolerability (clinical examination, gross necropsy, histology) ([3]; all three doses (1 mg/kg bid, 10 mg/kg qd, 10 mg/kg bid), oral): well tolerated without obvious signs of toxicity
- AAM (alternatively activated M2 macrophage) counts in the skin ([3]; all three doses, statistically significant for 10 mg/kg qd and 10 mg/kg bid): reduction of AAM accumulation
- accumulation of hydroxyproline, skin [3, 8]: reduced
- dermal thickening [3, 8]: reduced
- myofibroblast differentiation, skin [3, 8]: reduced
- hydroxyproline levels, lung, vs mice killed three weeks after BMT ([4]; 10 mg/kg qd): below those of mice killed three weeks after BMT
- Ashcroft scores [4, 9]: reduced
- collagen-covered lung area [4, 9]: reduced
- hydroxyproline content, lung [4, 9]: reduced
- % Inhibition at 1 µM, 5-HT7 (hu) ([5]; 1 µM (value in brackets)): 39%
- % Inhibition at 10 µM, 5-HT7 (hu) ([5]; 10 µM): 91%
- % Inhibition at 1 µM, 5-HT4 (gp) ([6]; 1 µM (value in brackets)): 34%
- % Inhibition at 10 µM, 5-HT4 (gp) ([6]; 10 µM): 74%
